For series [1], the system named is U87MG human glioma cell line. The experiment in a line: Cell viability test (CCK-8) in U87MG. It is filed as cell-based. To be noted: 50 μM GL equivalent, after 48 h treatment. As to the method: Cell viability was determined using a cell counting kit-8 (CCK-8). U87MG and HUVECs (seeding density: 0.75 × 10^4 cells per well) in 96-well culture plates were treated with GL, Lf, or Lf-GL (25 to 200 × 10^–6 M of GL equivalent concentration) and were incubated for different periods of time (24, 48, and 72 h). After washing with PBS, they were treated with a cell culture medium containing a CCK-8 assay kit (Abbkine) and were incubated at 37 °C and 5% CO2 for 2 h. Then, absorbance was measured at 450 nm in a micro-plate reader (VLBL00D0, Thermo Fisher Scientific). Results were quantified using Sigma Plot (Systat Software, USA). To determine the effect of extracellular HMGB1 in GBM and endothelial cell proliferation, U87MG and HUVECs were seeded in 96-well culture plates (seeding density: 0.75 × 10^4 cells per well) and GL, Lf, or Lf-GL (50 × 10^–6 M GL equivalent concentration) were added to cells with or without HMGB1 protein (U87MG: 0.1 μg mL^−1, and HUVEC: 1 μg mL^−1). Cells were incubated for different periods of time (24, 48, and 72 h).

The subject of another series is HUVEC. The experiment in a line: HUVEC co-cultured with U87MG: CCK-8 at basal chamber. It is filed as cell-based, human. To be noted: HUVEC/U87MG Transwell co-culture, 100 μM GL equivalent, 24 h. As to the method:
To evaluate the inhibitory effect of Lf-GL on neovascularization in the tumor microenvironment in vitro, U87MG cells were seeded in the Transwell® insert chambers that were 6.5 mm in diameter and had 0.4 μm pore sizes (seeding density: 2.5 × 10^4 cells per well, Corning). HUVECs were seeded in the Transwell basal chamber (seeding density: 5.0 × 10^4 cells per well). GL, Lf, or Lf-GL (100 × 10^–6 M of GL equivalent concentration) were added to the insert chamber, and cells were incubated for 24 h. CCK-8 assay and HMGB1 ELISA were conducted at the basal chamber.

Series [2] is described as follows: In vivo fluorescence tracer image (brain). To be noted: FITC-tagged. Also noted: species or system Balb/c mice. As for the experimental part: For the fluorescence tracer images, Balb/c mice were administered either FITC-tagged GL or FITC-tagged Lf-GL at a GL equivalent concentration of 50 mg kg^−1 body weight via tail vein injection. After 1, 10, 30, and 60 min, the experimental mice were sacrificed, and the organs were extracted. The fluorescence signals of FITC-tagged GL or FITC-tagged Lf-GL in organs were imaged using an in vivo imaging system (FOBI, CELLGENTEK, South Korea). The exposure time was fixed to 200 s for analyzing fluorescent signals from tissues. The quantified fluorescence signal of the brain at each time point was measured in terms of intensity units (IU, Intensity Min^−1 Gain^−1).
Fig. S15. Fluorescence tracer images of intravenously injected GL and Lf-GL. Balb/c mice were administered either FITC-tagged GL or FITC-tagged Lf-GL at a GL equivalent concentration of 50 mg kg^-1 body weight via tail vein injection. The fluorescence signals of FITC-tagged GL or FITC-tagged Lf-GL in organs were imaged using an in vivo imaging system (FOBI, CELLGENTEK, South Korea). The exposure time was fixed to 200 sec for analyzing fluorescent signals from tissues. The quantified fluorescence signal of brain at each time point was measured with Intensity Unit (IU, Intensity Min^-1 Gain^-1).

A short description of series [3]: GBM targeted-GL by HPLC in brain homogenate. The format is in vivo, orthotopic GBM model mice. To be noted: Balb/c nude, mouse, brain homogenate, iv; orthotopic GBM mice, i.v. GL equivalent 50 mg kg^−1, 10 min after injection; read-out: GL concentration detected in brain homogenate. As to the method:
Orthotopic GBM mice model mice were used for quantification of GBM targeting efficacy. The brain tissue was homogenized in deionized water at a 33.3 w/v (%) using a FastPrep-24 5G (MP biomedical, South Korea). The GL were added to pooled brain homogenate to obtain seven-point calibration curves with a range of 10–1000 ng mL^−1. Then, homogenate (50 μL) was mixed with methanol (100 μL). […] Thereafter, supernatants (100 μL) were mixed with mobile phase solution (900 μL), then filtered with a 0.22 μm syringe filter. Samples were collected in a 2 mL HPLC vial (Screw top vial, Waters, USA) and analyzed by HPLC at 254 nm. […] Mice were sacrificed and brain tissues were collected 10 min after the GL and Lf-GL injection. The samples for quantification were also conducted using the same process as GL standard preparation.

The next series concerns the target HMGB1 box A. The arrangement: method as in PMID 17462578. To be noted: previously reported; cited from earlier work.
Another series concerns the target HMGB1 box B. Also noted: method as in PMID 17462578. To be noted: previously reported; cited from earlier work.
Series [4] in a line: In vivo pharmacokinetics study.
The mark [5] stands for this setting: Balb/c, mouse, plasma, iv, 50 mg/kg.

This is an account of results in article PMC10200060, “Inhibition of DAMP actions in the tumoral microenvironment using lactoferrin-glycyrrhizin conjugate for glioblastoma therapy” (Biomaterials Research, 2023).

For orientation: Kd means the constant that tells how readily two partners part at equilibrium. Usually AUC(0-t) stands for exposure summed from dosing to a finite time, without extrapolation to infinity. Low values mean less exposure, high ones more exposure. What is called Cmax is the highest concentration seen after dosing. What is called MRT is a mean duration of stay, worked out from the concentration-time curve. The Tmax is the time at which the peak concentration occurs. As usually defined, the half-life is the time in which the quantity being followed falls by half.

Where only a bound is given, the exact number is not on record here.

As to `CC1(C)[C@@H](O[C@H]2O[C@H](C(=O)O)[C@@H](O)[C@H](O)[C@H]2O[C@@H]2O[C@H](C(=O)O)[C@@H](O)[C@H](O)[C@H]2O)CC[C@]2(C)[C@H]3C(=O)C=C4[C@@H]5C[C@@](C)(C(=O)O)CC[C@]5(C)CC[C@@]4(C)[C@]3(C)CC[C@@H]12` [GL, Glycyrrhizin], in series [1], the “Number of cells, % of the original count” value is on record as 93.4 ± 4.8%. Also, the “Reduction of endothelial cell proliferation” value in the series with HUVEC came out at 10.7 ± 2.9%. For the same compound, the “Time up to which fluorescence signal was detected in the brain” value in series [2] (i.v. GL equivalent 50 mg kg^−1) is listed as not above 10 min. In addition, in series [2] (i.v. GL equivalent 50 mg kg^−1, 10 min after injection), the “Fluorescence intensity in the brain” value is 7,914 I.U. Besides, the concentration at 10 min in series [3] was 9.8 ± 2.3 µg/mL. Besides, on HMGB1 box A, the equilibrium dissociation constant (Kd) is 170 ± 3 µM. Further, on HMGB1 box B, the dissociation constant Kd was 140 ± 3 µM. In series [4] (setting [5]), the AUC(0-t) is 102 µg·h/mL, the Cmax was 254 ± 117 µg/mL, the mean residence time MRT was 4.6 min and the Tmax is 1 min. Further, the half-life in series [4] (Balb/c, mouse, plasma, iv, 50 mg/kg, T1/2, elimination half-life, mice, GL equivalent 50 mg kg^−1, plasma) is approximately 3.8 min. In addition, the “Time after administration until cleared from / remaining in circulation” value in series [4] (mice, i.v., GL equivalent 50 mg kg^−1) is recorded as 150 min.
